# Values of other authors, collected in patent publication US5547866A (priority 1994, dated 1996).
# System: breast, lung and other cancers
# Settings: background
smiles,measurement,value
CC(=O)O[C@H]1C(=O)[C@@]2(C)[C@H]([C@H](OC(=O)c3ccccc3)[C@]3(O)C[C@H](OC(=O)[C@H](O)[C@@H](NC(=O)c4ccccc4)c4ccccc4)C(C)=C1C3(C)C)[C@]1(OC(C)=O)CO[C@@H]1C[C@@H]2O [taxol],"activity against breast, lung and other cancers","shown activity against breast, lung and other cancers"
